Common to all, as to format: biochemical
For assay [1], the target named is T1, B. amyloliquefaciens subtilisin deletion mutant S153/S156/A158/G159/S160/Δ161-164/I165/S166/A169/R170 (Bacillus amyloliquefaciens, UniProt P00782, A260S/DEL268-271/E263S/G267S/G273S/G276A/K277R/S266G/T265A/V272I).
T1 construct: made in house
T1 sequence (P00782 with tags, fused parts or gaps A260S/E263S/DEL265-265/S266A/S269I/DEL271-273/G276A/K277R): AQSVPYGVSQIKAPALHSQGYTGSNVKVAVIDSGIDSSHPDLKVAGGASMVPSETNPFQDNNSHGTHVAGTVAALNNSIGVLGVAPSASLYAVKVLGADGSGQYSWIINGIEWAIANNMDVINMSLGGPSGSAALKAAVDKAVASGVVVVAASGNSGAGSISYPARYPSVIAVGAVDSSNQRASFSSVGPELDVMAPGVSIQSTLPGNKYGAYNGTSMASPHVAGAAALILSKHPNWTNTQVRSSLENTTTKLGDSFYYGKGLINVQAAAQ
In words: Kinetics of p-nitroanilide substrate hydrolysis, deletion mutant. The settings on record: Table V; substrate not given; method b166 gives kcat in s-1. From the text:
The effect of deletion of residues 161 through 164 has been shown by comparing the activity of the wild type (WT) enzyme with a mutant enzyme containing this deletion as well as multiple substitutions (i.e., S153/S156/A158/G159/S160/0161-164/1165/S166/A169/R170). This produced the following results:
(§1) Wild-type subtilisin was purified from B. subtilis culture supernatants expressing the B. amyloliquefaciens subtilisin gene (Wells, J.A., et al. (1983) Nucleic Acids Res. 11, 7911-7925) as previously described (Estell, D.A., et al. (1985) J. Biol. Chem. 260, 6518-6521). Details of the synthesis of tetrapeptide substrates having the form succinyl-L-AlaL-AlaL-ProL-[X]-p-nitroanilide (where X is the P1 amino acid) are described by DelMar, E.G., et al. (1979) Anal. Biochem. 99, 316-320. Kinetic parameters, Km(M) and kcat-(s-^1) were measured using a modified progress curve analysis (Estell, D.A., et al. (1985) J. Biol. Chem. 260, 6518-6521). Briefly, plots of rate versus product concentration were fit to the differential form of the rate equation using a non-linear regression algorithm. Errors in kcat and Km for all values reported are less than five percent. The various substrates in Table VIII are ranged in order of decreasing hydrophobicity. Nozaki, Y. (1971), J. Biol. Chem. 246, 2211-2217; Tanford C. (1978) Science 200, 1012).

For assay [2], the target named is T2, B. amyloliquefaciens subtilisin variant L217 (Tyr217 to Leu) (Bacillus amyloliquefaciens, UniProt P00782, Y324L).
T2 construct: made in house
T2 sequence (P00782 108-382 Y324L): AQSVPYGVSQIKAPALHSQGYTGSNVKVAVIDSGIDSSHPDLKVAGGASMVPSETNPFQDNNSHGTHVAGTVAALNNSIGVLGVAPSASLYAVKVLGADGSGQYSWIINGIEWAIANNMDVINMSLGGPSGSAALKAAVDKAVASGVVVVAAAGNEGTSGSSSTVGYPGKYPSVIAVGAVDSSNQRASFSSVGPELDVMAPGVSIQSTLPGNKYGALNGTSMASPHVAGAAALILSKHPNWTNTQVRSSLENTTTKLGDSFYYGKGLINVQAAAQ
In words: Kinetics of p-nitroanilide substrate hydrolysis, L217. To be noted: substrate sAAPFpNa.
Description: as §1
Tyr217 has been substituted by all other 19 amino acids. Cassette mutagenesis as described in EPO publication No. 0130756 was used according to the protocol of Figure 22. The EcoRV restriction site was used for restriction-purification of pA217.
Since this position is involved in substrate binding, mutations here effect kinetic parameters of the enzyme. […]

Assay [3] has as its target T3, B. amyloliquefaciens subtilisin, wild type (WT, Gly166) (Bacillus amyloliquefaciens, UniProt P00782).
T3 construct: at various amino acid residues within the mature form of the subtilisin molecule; made in house; host or cells: Bacillus subtilis (secreted, culture supernatant)
T3 sequence (P00782 108-382): T2 sequence (P00782 108-382 Y324L) with L217Y
In words: Kinetics of hydrolysis of succinyl-Ala-Ala-Pro-X-p-nitroanilide substrates (progress curve analysis).
Description: A change in substrate specificity is defined as a difference between the kcat/Km ratio of the precursor carbonyl hydrolase and that of the hydrolase mutant. The kcat/Km ratio is a measure of catalytic efficienty. Carbonyl hydrolase mutants with increased or diminished kcat/Km ratios are described in the examples. Generally, the objective will be to secure a mutant having a greater (numerically large) kcat/Km ratio for a given substrate, thereby enabling the use of the enzyme to more efficiently act on a target substrate. A substantial change in kcat/Km ratio is preferably at least 2-fold increase or decrease. However, smaller increases or decreases in the ratio (e.g., at least 1.5-fold) are also considered substantial. An increase in kcat/Km ratio for one substrate may be accompanied by a reduction in kcat/Km ratio for another substrate. […] Km and kcat are measured in accord with known procedures, as described in EPO Publication No. 0130756 or as described herein.
as §1

Numbering of substitutions follows the chain as printed. *1 amine or outer side, *2 acyl side, *3 side chain or, on linkers, in order; H or OH if unused. Where a SMILES comes first, the peptide text is derived from it. The star is where a group is joined. pNA = O=[N+]([O-])c1ccc(N*)cc1; Suc = O=C(CCC(=O)[*:2])[*:1]

For `C[C@H](NC(=O)CCC(=O)O)C(=O)N[C@@H](C)C(=O)N1CCC[C@H]1C(=O)N[C@@H](Cc1ccccc1)C(=O)Nc1ccc([N+](=O)[O-])cc1` [sAAPFpNa, succinyl-L-AlaL-AlaL-ProL-Phep-nitroanilide, reference compound] (Suc-AAPF-pNA), the kcat in assay [1] was 8; in assay [2], 277 5'; in assay [3] (Table V, substrate not given, method b166 gives kcat in s-1) it was 50; in assay [3] (Table XIX, WT) it was 50 s-^1.

Source of the values: patent EP0251446B1, “Non-human Carbonyl hydrolase mutants, DNA sequences and vectors encoding same and hosts transformed with said vectors” (GENENCOR INTERNATIONAL, INC., priority 1986, dated 1988).
